Data taken from ChEMBL document CHEMBL1201862, “PubChem BioAssay data set” (2004).
Calls of active or inactive are those of the source. Cut-off read from the data, not from the text of the source, for most assays here: actives have a measured EC50 and inactives only a lower limit.

Key:
Hexokinase HKDC1 = target: T1, Hexokinase HKDC1 (Homo sapiens, UniProt Q2TB90); assay: inhibition of HKDC1 glucose phosphorylation – biochemical, W721R variant, dose response (AID 504729); format: functional
T1 sequence (Q2TB90 whole entry): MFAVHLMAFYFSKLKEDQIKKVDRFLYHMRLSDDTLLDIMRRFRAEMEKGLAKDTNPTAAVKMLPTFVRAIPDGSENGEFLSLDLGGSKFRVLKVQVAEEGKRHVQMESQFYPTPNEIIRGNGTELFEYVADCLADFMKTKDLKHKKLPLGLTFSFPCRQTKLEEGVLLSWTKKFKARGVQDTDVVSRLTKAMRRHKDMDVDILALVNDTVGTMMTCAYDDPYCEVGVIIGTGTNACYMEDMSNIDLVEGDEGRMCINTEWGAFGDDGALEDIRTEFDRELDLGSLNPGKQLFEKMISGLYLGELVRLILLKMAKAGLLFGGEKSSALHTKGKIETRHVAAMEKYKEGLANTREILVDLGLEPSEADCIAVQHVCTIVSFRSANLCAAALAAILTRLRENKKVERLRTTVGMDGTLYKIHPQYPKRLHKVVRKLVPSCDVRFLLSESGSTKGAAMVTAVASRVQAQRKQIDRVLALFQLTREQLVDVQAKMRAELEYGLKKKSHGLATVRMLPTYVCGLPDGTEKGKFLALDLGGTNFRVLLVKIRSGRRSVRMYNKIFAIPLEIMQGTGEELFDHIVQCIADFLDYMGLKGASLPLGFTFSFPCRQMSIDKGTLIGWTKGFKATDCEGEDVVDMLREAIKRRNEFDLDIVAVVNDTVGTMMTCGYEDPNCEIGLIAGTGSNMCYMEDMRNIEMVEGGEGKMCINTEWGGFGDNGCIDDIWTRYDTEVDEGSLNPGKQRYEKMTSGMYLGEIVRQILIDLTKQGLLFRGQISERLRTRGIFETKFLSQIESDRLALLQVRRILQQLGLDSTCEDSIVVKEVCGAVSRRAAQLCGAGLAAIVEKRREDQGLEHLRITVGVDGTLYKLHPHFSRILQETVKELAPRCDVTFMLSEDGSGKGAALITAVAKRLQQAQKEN

BJ [1] = assay: BJ-TERT fibroblast viability loss – cell-based, RAS-independent, luminescence, dose response (AID 1933); format: functional; settings: Homo sapiens
[2] = target: T2, Replicative DNA helicase DnaB (Mycobacterium tuberculosis, UniProt P9WMR3); assay: DnaB intein splicing inhibitors, dose response, biochemical, cell-free fluorescence (AID 449749); format: functional
T2 sequence (P9WMR3 whole entry): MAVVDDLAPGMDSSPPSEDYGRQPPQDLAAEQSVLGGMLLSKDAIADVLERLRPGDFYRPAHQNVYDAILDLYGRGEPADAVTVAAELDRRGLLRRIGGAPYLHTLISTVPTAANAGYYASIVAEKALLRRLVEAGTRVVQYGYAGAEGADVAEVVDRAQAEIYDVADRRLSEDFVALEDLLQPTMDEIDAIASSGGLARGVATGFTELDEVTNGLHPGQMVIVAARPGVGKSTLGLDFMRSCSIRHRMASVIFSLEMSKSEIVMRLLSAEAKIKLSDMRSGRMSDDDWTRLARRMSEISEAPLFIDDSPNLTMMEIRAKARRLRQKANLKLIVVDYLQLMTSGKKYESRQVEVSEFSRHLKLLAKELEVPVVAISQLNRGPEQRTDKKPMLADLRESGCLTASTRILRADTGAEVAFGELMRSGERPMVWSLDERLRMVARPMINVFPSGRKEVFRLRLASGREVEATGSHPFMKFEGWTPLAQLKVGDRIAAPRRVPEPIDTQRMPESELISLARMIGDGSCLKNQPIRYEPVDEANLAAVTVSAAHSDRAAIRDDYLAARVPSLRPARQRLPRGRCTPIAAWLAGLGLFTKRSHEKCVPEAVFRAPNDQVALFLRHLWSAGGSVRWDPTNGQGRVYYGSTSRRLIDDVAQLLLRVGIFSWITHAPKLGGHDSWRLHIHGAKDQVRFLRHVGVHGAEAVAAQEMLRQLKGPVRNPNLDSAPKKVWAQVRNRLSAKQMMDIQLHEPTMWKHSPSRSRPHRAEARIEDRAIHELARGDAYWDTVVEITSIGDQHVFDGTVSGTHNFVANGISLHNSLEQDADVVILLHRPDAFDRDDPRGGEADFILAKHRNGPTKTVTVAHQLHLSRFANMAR

[3] = DRD fibroblast viability loss – cell-based, non-viral oncogenic, luminescence, dose response (AID 1934); format: functional; settings: Homo sapiens
Protein RecA = target: T3, Protein RecA (Mycobacterium tuberculosis, UniProt P9WHJ3); assay: Fluorescence Cell-Free Homogeneous Dose Retest to Identify Inhibitors of RecA-Intein Splicing Activity. [Related pubchem assays (depositor defined):AID2097, AID2223, AID489010, AID492950]; format: functional
T3 sequence (P9WHJ3 whole entry): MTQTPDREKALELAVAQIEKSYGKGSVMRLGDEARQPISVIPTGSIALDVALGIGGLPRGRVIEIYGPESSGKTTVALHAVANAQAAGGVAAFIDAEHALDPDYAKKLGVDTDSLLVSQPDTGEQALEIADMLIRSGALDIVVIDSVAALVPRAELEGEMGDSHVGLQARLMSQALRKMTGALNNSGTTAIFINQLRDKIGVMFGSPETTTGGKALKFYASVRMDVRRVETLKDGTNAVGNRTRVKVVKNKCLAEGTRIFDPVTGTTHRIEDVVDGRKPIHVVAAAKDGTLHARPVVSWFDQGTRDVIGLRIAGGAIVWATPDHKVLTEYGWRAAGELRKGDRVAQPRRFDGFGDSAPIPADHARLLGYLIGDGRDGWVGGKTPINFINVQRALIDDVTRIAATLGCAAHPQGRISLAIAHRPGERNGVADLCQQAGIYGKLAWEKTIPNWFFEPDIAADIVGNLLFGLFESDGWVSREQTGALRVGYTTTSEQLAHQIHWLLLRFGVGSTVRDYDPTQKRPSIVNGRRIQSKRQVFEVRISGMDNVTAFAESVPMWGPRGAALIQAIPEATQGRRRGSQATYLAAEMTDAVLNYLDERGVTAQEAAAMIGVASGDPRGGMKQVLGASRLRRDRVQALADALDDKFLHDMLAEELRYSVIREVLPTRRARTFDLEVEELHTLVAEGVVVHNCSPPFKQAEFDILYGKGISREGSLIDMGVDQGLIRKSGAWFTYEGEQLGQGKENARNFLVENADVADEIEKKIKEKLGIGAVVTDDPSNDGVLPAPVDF

BJ [4] = assay: BJ-TERT-LT-ST fibroblast viability loss – cell-based, RAS-independent, luminescence, dose response (AID 1935); format: functional; settings: Homo sapiens;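 note: BJ fibroblasts immortalized with TERT plus LT and ST oncogenes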
[5] = fluconazole-exposed Candida albicans growth modulators – fluorescence, retest, confirmation (AID 2467); format: functional, cell-based
[6] = NIH-3T3 fibroblast cytotoxicity, dose response, cytotoxicity control, cell-based, fluorescence, Alamar Blue, secondary assay (AID 2327); format: functional;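 note: NIH-3T3 mouse fibroblasts cultured with fluconazole at 8 µg/mL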
[7] = Luminescence Cell-Based Dose Response HTS to Identify Inhibitors of 5'UTR Stem-Loop Driven Prion Protein mRNA Translation in H4 Neuroglioblastoma Cells. [Related pubchem assays: 1827 (Project Summary), 1813 (Primary HTS)]; format: functional
[8] = alpha-synuclein stem-loop luciferase translation blockers – H4 neuroglioma cells, luminescence, confirmation (AID 1988); format: functional, cell-based
BJ [9] = assay: cells; format: functional, cell-based; settings: Homo sapiens
[10] = luciferase reporter signal suppression in cells – H4 neuroglioma cells, luminescence, dose response (AID 1990); format: functional, cell-based
[11] = target: T4, Microphthalmia-associated transcription factor (Homo sapiens, UniProt O75030); assay: reducers of TRPM1 reporter luminescence, concentration series – cell-based, SK-MEL-5, cherry-picked, set 3, MITF inhibitor project, dose response (AID 493073); format: functional;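 note: SK-MEL-5 melanoma cells with luciferase driven by the MITF target TRPM1 promoter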
T4 sequence (O75030 whole entry): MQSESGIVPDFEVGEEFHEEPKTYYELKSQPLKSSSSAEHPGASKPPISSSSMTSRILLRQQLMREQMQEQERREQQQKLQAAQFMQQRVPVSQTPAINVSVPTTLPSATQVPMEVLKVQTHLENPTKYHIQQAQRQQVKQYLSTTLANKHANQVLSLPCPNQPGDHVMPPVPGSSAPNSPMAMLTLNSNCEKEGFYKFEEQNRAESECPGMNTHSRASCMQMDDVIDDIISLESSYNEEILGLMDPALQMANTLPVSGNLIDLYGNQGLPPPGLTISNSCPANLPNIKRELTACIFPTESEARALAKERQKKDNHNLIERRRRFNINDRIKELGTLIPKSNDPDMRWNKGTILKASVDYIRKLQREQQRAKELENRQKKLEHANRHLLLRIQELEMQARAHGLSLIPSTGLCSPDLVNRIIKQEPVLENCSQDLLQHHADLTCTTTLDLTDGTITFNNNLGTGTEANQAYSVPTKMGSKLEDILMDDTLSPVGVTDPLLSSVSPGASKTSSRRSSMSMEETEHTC

Beta-galactosidase = Beta-galactosidase (Escherichia coli, UniProt Q8VNN2); format: functional
[12] = target: T5, Kappa-type opioid receptor (Homo sapiens, UniProt P41145); format: functional
[13] = target: T5, Kappa-type opioid receptor; format: functional; remark: listed apart in the source
Cytochrome P450 3A4 = Cytochrome P450 3A4 (Homo sapiens, UniProt P08684); settings: Potency;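 note: confirmatory qHTS run detecting inhibitors and substrates of CYP3A4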
P388/ADR = assay: cells; format: functional; settings: Mus musculus
SN12K1 = assay: cells; format: functional; settings: Homo sapiens
P388 = assay: cells; format: functional; settings: Mus musculus

T5 sequence (P41145 whole entry): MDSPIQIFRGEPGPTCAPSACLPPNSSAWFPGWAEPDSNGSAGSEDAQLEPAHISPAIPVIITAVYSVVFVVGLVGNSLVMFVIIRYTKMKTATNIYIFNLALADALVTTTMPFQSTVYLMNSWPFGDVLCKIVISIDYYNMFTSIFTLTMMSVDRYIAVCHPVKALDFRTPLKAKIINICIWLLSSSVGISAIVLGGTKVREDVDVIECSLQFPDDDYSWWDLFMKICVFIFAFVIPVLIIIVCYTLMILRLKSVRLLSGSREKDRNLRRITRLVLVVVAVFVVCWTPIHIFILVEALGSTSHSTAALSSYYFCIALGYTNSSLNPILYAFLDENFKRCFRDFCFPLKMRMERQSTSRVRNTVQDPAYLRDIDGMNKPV
Sequence of Beta-galactosidase (Q8VNN2 whole entry): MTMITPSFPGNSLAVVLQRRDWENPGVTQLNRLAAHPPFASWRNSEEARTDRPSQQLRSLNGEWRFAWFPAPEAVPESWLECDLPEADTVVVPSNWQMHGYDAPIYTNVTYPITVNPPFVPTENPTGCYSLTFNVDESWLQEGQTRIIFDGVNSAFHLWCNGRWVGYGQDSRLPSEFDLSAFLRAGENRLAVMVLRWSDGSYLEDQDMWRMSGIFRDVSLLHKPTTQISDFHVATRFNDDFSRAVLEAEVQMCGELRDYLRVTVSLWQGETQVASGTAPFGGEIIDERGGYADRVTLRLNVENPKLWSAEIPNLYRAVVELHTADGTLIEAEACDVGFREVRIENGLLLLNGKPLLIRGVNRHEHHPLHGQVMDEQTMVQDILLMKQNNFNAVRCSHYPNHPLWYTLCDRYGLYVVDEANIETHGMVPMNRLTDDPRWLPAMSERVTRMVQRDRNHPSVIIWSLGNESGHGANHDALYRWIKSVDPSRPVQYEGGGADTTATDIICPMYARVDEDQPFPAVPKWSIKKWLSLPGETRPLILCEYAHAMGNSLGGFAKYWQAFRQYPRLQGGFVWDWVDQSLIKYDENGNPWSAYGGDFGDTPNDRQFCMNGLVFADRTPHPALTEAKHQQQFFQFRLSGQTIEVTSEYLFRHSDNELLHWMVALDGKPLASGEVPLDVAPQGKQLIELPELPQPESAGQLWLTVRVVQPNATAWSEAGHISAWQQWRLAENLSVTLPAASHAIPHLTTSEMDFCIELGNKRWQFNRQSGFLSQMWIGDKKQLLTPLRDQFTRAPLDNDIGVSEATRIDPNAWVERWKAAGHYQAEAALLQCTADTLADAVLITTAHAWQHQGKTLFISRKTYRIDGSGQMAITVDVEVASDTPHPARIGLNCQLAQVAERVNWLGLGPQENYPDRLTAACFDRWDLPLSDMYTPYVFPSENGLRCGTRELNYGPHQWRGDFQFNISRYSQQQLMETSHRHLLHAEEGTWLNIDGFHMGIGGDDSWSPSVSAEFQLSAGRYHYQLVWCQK
Sequence of Cytochrome P450 3A4 (P08684 whole entry): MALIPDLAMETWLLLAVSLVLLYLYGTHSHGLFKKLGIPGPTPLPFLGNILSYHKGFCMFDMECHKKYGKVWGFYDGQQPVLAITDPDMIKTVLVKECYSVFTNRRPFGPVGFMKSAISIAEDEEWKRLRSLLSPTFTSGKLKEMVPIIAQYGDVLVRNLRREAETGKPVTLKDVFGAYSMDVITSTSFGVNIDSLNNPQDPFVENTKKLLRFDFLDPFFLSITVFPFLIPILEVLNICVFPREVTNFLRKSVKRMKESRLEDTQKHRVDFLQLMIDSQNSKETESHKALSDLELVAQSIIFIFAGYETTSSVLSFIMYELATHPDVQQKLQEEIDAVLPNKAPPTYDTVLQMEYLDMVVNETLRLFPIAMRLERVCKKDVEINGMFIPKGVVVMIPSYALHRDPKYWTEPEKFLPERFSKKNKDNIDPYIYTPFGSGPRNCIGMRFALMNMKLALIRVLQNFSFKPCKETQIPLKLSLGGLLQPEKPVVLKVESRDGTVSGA

CCOc1ccc(-n2c(C)cc(C(=O)CCl)c2C)cc1
IC50 (Hexokinase HKDC1): 47.7 µM (inactive) | EC50 (BJ [1]): 4.29 µM (active) | AC50 [2]: 8.96 µM (active) | EC50 [3]: 9.56 µM (active) | EC50 (Protein RecA): 11.7 µM (active) | EC50 (BJ [4]): 9.67 µM (inconclusive) | EC50 [5]: > 38 µM (not active) | EC50 [6]: 4.21 µM (inconclusive) | EC50 [7]: 15 µM (active) | EC50 [8]: > 120 µM (not active) | EC50 (BJ [9]): 4.84 µM (active) | EC50 [10]: > 120 µM (not active) | AC50 [11]: 4.59 µM (active)

Oc1ccc2c3c1O[C@H]1c4oc5ccccc5c4C[C@@]4(O)[C@@H](C2)N(CC2CC2)CC[C@]314
EC50 (Beta-galactosidase): > 31.5 µM (inactive) | IC50 [12]: < 500 nM | IC50 [13]: 699 nM (active)

COC1=CC(=O)C=C(OC)C1=O [2,6-DIMETHOXYQUINONE]
IC50 (Hexokinase HKDC1): 2.49 µM (active) | AC50 (Cytochrome P450 3A4): 25.1 µM (inconclusive) | GI50 (P388/ADR): 457 nM (active) | GI50 (SN12K1): 7.38 µM (inactive) | GI50 (P388): 401 nM (active)
